In brackets after ≈: the same amount, converted by molar mass. Several values for one entry are separate records, joined by “and”; a condition that tells them apart may be missing. Equal entries are not always repeated. Entries after “also recorded” stand apart in the source; their conditions may differ. Where two headings read alike, the source gives them in different places. One block for each molecule: values may come before it.
What was measured:
Rlig1-AMP [1] = molecular target: T1, Rlig1-AMP (Homo sapiens, UniProt Q8N999); assay: Radioactive RNA ligation assay (hit validation, 10 µM test and IC50 determination); assay type: biochemical; settings: for inhibition of Rlig1-AMP ligation (urea-PAGE): 10 μM compound; for IC50: n = 3; for percentage inhibition (dose response curve for IC50): replicates I-III; for LogIC50 (best-fit value): log of µM; for Bottom (best-fit value) / Top (best-fit value): log(inhibitor) vs. response, variable slope (four parameters)
T1 construct: made in house; host or cells: E. coli BL21 (DE3), pET15b-Rlig1

HEK293 cells = assay: Cell viability assay of HEK293 cells treated with inhibitors (CellTiter-Glo); settings: for cytotoxicity (in words): HEK293, 24 h, up to 30 μM; for EC50: HEK293, 24 h compound, highest concentration 30 μM, n = 3; for IC50 (Figure 3D: EC50 values for plot; log(inhibitor) vs. response -- Variable slope (four parameters)) / LogIC50 (log(inhibitor) vs. response -- Variable slope (four parameters)): HEK293 cell viability, fit per plate (3 plates, 4 technical replicates each); for IC50 (Figure 3D: EC50 values for plot; log(inhibitor) vs. response -- Variable slope (four parameters)): highest tested concentration 30 µM; for LogIC50 (log(inhibitor) vs. response -- Variable slope (four parameters)): log of [µM]
[2] = molecular target: T2, human DNA ligase 1 (hLig1) (Homo sapiens, UniProt P18858); assay: DNA ligation assay with various hLig1 concentration at constant inhibitor concentration; assay type: biochemical; settings: 30 min 37 °C; for DNA product formation: 10 µM compound, three replicates
T2 construct: made in house; host or cells: E. coli Rosetta BL21 (DE3), pET28a-hLig1

Rlig1-AMP [3] = molecular target: T1, Rlig1-AMP; assay: FRET-based high-throughput screening of inhibitors for Rlig1-AMP; assay type: biochemical; settings: for Raw data [w Enyzm]: with enzyme; for Raw data [w/o Enzym]: without enzyme
[4] = DMSO; ref MedChemExpress; cited from earlier work
[5] = ref MedChemExpress, cited from earlier work
[6] = ultrasonic/warming, ref MedChemExpress, cited from earlier work
[7] = ref MedChemExpress, cited from earlier work; remark: listed apart in the source
[8] = four-parameter fit, read-out: IC50 (best-fit value)
[9] = radioactive ligation assay, 500 nM Rlig1-AMP, 20 min 37 °C, read-out: IC50
[10] = HTS hits, difference of raw data w/o and w enzyme
[11] = HTS hits, normalized value (npi)

T2 sequence (P18858 whole entry): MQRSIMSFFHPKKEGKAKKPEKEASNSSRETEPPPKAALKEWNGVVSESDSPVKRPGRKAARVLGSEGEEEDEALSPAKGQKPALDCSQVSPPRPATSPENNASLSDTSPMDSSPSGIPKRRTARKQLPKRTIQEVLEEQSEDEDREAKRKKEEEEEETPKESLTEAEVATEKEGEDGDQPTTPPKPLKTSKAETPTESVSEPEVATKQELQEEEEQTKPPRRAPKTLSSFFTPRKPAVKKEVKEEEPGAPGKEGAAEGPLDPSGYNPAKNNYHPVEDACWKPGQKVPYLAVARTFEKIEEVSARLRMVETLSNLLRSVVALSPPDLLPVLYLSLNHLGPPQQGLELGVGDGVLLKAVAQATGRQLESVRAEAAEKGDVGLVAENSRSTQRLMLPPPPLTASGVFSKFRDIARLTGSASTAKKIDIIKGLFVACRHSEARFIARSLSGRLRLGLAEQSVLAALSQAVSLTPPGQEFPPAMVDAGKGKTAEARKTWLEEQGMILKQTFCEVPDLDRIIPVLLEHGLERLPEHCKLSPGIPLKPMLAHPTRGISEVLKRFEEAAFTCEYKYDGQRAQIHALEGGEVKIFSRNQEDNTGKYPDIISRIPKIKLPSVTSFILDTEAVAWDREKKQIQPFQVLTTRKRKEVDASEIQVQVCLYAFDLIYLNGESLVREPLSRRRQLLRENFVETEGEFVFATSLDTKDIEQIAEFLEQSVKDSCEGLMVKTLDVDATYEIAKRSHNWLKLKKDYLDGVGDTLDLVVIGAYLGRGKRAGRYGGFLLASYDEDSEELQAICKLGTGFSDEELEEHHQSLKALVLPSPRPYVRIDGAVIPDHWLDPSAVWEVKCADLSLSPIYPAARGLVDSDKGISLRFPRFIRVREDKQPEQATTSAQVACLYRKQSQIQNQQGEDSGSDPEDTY
T1 sequence (Q8N999 whole entry): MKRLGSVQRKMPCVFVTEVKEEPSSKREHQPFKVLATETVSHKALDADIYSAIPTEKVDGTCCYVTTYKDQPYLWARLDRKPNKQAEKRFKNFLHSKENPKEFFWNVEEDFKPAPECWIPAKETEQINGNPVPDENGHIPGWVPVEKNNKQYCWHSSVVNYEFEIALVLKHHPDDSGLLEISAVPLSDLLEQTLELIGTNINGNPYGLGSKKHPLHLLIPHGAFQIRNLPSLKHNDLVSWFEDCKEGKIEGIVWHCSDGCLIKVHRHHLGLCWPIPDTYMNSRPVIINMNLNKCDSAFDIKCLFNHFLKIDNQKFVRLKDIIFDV

Compound: Nc1nc(Nc2ccc(NC(=O)c3ccc(Nc4ccnc5ccccc45)cc3)cc2)cc(C(F)(F)F)n1 [Compound 41]
inhibition of Rlig1-AMP ligation (urea-PAGE) (Rlig1-AMP [1]; 500 nM Rlig1-AMP, 20 min 37 °C): Ligation was inhibited; also recorded: fully inhibited
HillSlope (best-fit value) (Rlig1-AMP [1]; four-parameter fit): 6.706
Span (best-fit value) (Rlig1-AMP [1]; four-parameter fit): 91.68
IC50 (Rlig1-AMP [1]; [8]): 7.98 µM
percentage inhibition (dose response curve for IC50) (Rlig1-AMP [1]; log Compound [µM] 0.273001): 1.895 and 15.4708 and 0.5134
percentage inhibition (dose response curve for IC50) (Rlig1-AMP [1]; log Compound [µM] 0.574031): 11.1208 and 11.2726 and 0
percentage inhibition (dose response curve for IC50) (Rlig1-AMP [1]; log Compound [µM] 0.875061): 30.9538 and 51.1087 and 45.619
percentage inhibition (dose response curve for IC50) (Rlig1-AMP [1]; log Compound [µM] 1.17609): 95.8601 and 98.8258 and 95.9476
percentage inhibition (dose response curve for IC50) (Rlig1-AMP [1]; log Compound [µM] 1.47712): 93.067 and 100 and 99.7336
percentage inhibition (dose response curve for IC50) (Rlig1-AMP [1]; log Compound [µM] -0.0280287): 9.18 and 3.83 and 4.351
percentage inhibition (dose response curve for IC50) (Rlig1-AMP [1]; log Compound [µM] -0.329059): 8.319 and 4.077 and 3.842
percentage inhibition (dose response curve for IC50) (Rlig1-AMP [1]; log Compound [µM] -0.630089): 9.025 and 10.4021 and 1.823
LogIC50 (best-fit value) (Rlig1-AMP [1]; four-parameter fit): 0.9022
Bottom (best-fit value) (Rlig1-AMP [1]): 6.221
Top (best-fit value) (Rlig1-AMP [1]): 97.9
IC50 (Rlig1-AMP [1]; [9]): 7.98 µM
cytotoxicity (in words) (HEK293 cells): comparatively high cytotoxicity
EC50 (HEK293 cells): 5.59 µM
IC50 (Figure 3D: EC50 values for plot; log(inhibitor) vs. response -- Variable slope (four parameters)) (HEK293 cells): 5.211 µM and 5.311 µM and 6.697 µM
LogIC50 (log(inhibitor) vs. response -- Variable slope (four parameters)) (HEK293 cells): 0.717 and 0.7252 and 0.8259
effect on hLig1 activity (in words) ([2]; 10 μM compound, hLig1 titrated (500 nM to 31.3 nM)): least impact on hLig1 activity
DNA product formation ([2]; hlig1 0.0315 µM): 32.8195% and 34.8543% and 48.0642%
DNA product formation ([2]; hlig1 0.0625 µM): 59.0993% and 56.4484% and 66.8349%
DNA product formation ([2]; hlig1 0.5 µM): 87.3568% and 90.1164% and 79.5057%

Compound: CNc1nccc(Nc2ccc(NC(=O)c3ccc(Nc4ccnc5ccccc45)cc3)cc2)n1 [Compound 42]
inhibition of Rlig1-AMP ligation (urea-PAGE) (Rlig1-AMP [1]; 500 nM Rlig1-AMP, 20 min 37 °C): Ligation was inhibited; also recorded: fully inhibited
HillSlope (best-fit value) (Rlig1-AMP [1]; four-parameter fit): 5.584
Span (best-fit value) (Rlig1-AMP [1]; four-parameter fit): 91.59
IC50 (Rlig1-AMP [1]; [8]): 3.29 µM
percentage inhibition (dose response curve for IC50) (Rlig1-AMP [1]; log Compound [µM] 0.273001): 16.0159 and 7.852 and 10.1751
percentage inhibition (dose response curve for IC50) (Rlig1-AMP [1]; log Compound [µM] 0.574031): 79.3655 and 83.1907 and 44.7582
percentage inhibition (dose response curve for IC50) (Rlig1-AMP [1]; log Compound [µM] 0.875061): 100 and 98.6279 and 97.3725
percentage inhibition (dose response curve for IC50) (Rlig1-AMP [1]; log Compound [µM] 1.17609): 100 (2×) and 92.704
percentage inhibition (dose response curve for IC50) (Rlig1-AMP [1]; log Compound [µM] 1.47712): 100
percentage inhibition (dose response curve for IC50) (Rlig1-AMP [1]; log Compound [µM] -0.0280287): 9.717 and 4.5039 and 9.184
percentage inhibition (dose response curve for IC50) (Rlig1-AMP [1]; log Compound [µM] -0.329059): 6.426 and 0 and 5.66
percentage inhibition (dose response curve for IC50) (Rlig1-AMP [1]; log Compound [µM] -0.630089): 11.6754 and 8.294 and 11.6155
LogIC50 (best-fit value) (Rlig1-AMP [1]; four-parameter fit): 0.5177
Bottom (best-fit value) (Rlig1-AMP [1]): 7.458
Top (best-fit value) (Rlig1-AMP [1]): 99.05
IC50 (Rlig1-AMP [1]; [9]): 3.29 µM
cytotoxicity (in words) (HEK293 cells): comparatively high cytotoxicity
EC50 (HEK293 cells): 3.51 µM
IC50 (Figure 3D: EC50 values for plot; log(inhibitor) vs. response -- Variable slope (four parameters)) (HEK293 cells): 3.237 µM and 3.382 µM and 4.036 µM
LogIC50 (log(inhibitor) vs. response -- Variable slope (four parameters)) (HEK293 cells): 0.5101 and 0.5292 and 0.6059
DNA product formation ([2]; hlig1 0.0315 µM): 8.9605% and 14.7712% and 28.5706%
DNA product formation ([2]; hlig1 0.0625 µM): 20.859% and 38.2979% and 41.6376%
DNA product formation ([2]; hlig1 0.5 µM): 72.119% and 74.3311% and 77.4812%

1-D Distance (Rlig1-AMP [3]; HTS hits, difference of raw data without and with enzyme): 1659
Raw data [w Enyzm] (Rlig1-AMP [3]; HTS hits): 6875
Raw data [w/o Enzym] (Rlig1-AMP [3]; HTS hits): 8534
Compound: Cc1cnc(NCCCN(C)C)c2c1[nH]c1ccc3cc(O)ccc3c12 [Intoplicine]
solubility [4]: 80 mg/mL and 229.59 mM

Compound: O=C1c2ccccc2-c2nc3nnnn3nc21.O=C1c2ccccc2-c2nn3nnnc3nc21 [KP372-1]
1-D Distance (Rlig1-AMP [3]; [10]): 385
1-D Distance.npi (Rlig1-AMP [3]; [11]): 99.8878
Raw data [w Enyzm] (Rlig1-AMP [3]; HTS hits): 14308
Raw data [w/o Enzym] (Rlig1-AMP [3]; HTS hits): 13923
solubility ([5]; DMSO): 17.86 mg/mL and 39.83 mM

Compound: CCn1c(=O)/c(=C2\Sc3ccccc3N2C)s/c1=C\c1cccc[n+]1CC.[Cl-] [MKT-077]
1-D Distance (Rlig1-AMP [3]; [10]): 170
1-D Distance.npi (Rlig1-AMP [3]; [11]): 104.232
Raw data [w Enyzm] (Rlig1-AMP [3]; HTS hits): 657
Raw data [w/o Enzym] (Rlig1-AMP [3]; HTS hits): 827
solubility ([5]; DMSO): 56.67 mg/mL and 131.18 mM
solubility ([5]; H2O): < 0.1 mg/mL

Compound: O=C1c2ccccc2C(=O)c2c1cc(S(=O)(=O)Nc1ccc(C(F)(F)F)cc1)c(O)c2O [PGMI-004A]
1-D Distance (Rlig1-AMP [3]; [10]): 1480
1-D Distance.npi (Rlig1-AMP [3]; [11]): 78.7935
Raw data [w Enyzm] (Rlig1-AMP [3]; HTS hits): 2222
solubility ([5]; DMSO): ≥ 125 mg/mL and ≥ 269.76 mM

1-D Distance (Rlig1-AMP [3]; [10]): 1429
Raw data [w Enyzm] (Rlig1-AMP [3]; HTS hits): 5362
Compound: Cc1[nH]c(/C=C2\C(=O)Nc3ccc(S(=O)(=O)Cc4c(Cl)cccc4Cl)cc32)c(C)c1C(=O)N1CCC[C@@H]1CN1CCCC1 [PHA-665752]
solubility ([5]; DMSO): 50 mg/mL and 77.93 mM

Compound: COc1cccc2c1C(=O)c1c(O)c3c(c(O)c1C2=O)C[C@@](O)(C(=O)CO)C[C@@H]3O[C@H]1C[C@H](N)[C@H](O[C@@H]2CCCCO2)[C@H](C)O1.Cl [Pirarubicin (Hydrochloride)]
solubility, DMSO ([6]; DMSO): 20.83 mg/mL and 31.37 mM
solubility, H2O ([6]; H2O): < 100 µg/mL
1-D Distance (Rlig1-AMP [3]; [10]): 1020
1-D Distance.npi (Rlig1-AMP [3]; HTS hits, normalised value of 1-D Distance): 86.4182
Raw data [w Enyzm] (Rlig1-AMP [3]; HTS hits): 2238
Raw data [w/o Enzym] (Rlig1-AMP [3]; HTS hits): 3258

Compound: CO[C@H]1/C=C/O[C@@]2(C)Oc3c(C)c(O)c4c(O)c(c(/C=N/N5CCN(C)CC5)c(O)c4c3C2=O)NC(=O)/C(C)=C\C=C\[C@H](C)[C@H](O)[C@@H](C)[C@@H](O)[C@@H](C)[C@H](OC(C)=O)[C@@H]1C [Rifampicin]
1-D Distance (Rlig1-AMP [3]; sheet HTS hits, difference of raw data w/o and w enzyme): 268
Raw data [w Enyzm] (Rlig1-AMP [3]; sheet HTS hits): 2212
Raw data [w/o Enzym] (Rlig1-AMP [3]; sheet HTS hits): 2480
solubility, DMSO ([7]; in DMSO): 50000 µg/mL (≈ 60.8 mM)
solubility, H2O ([7]; in H2O): 1000 µg/mL (≈ 1.22 mM)
